Measured values published in the NIST ThermoML archive (doi:10.1021/acs.jced.7b00333).
Numbers after ± are expanded uncertainties.

Columns and labels:
[1] = Crystal; DTA
[2] = Molar enthalpy of transition or fusion; details: Crystal; DSC

## COc1cc(C(=O)O)cc(OC)c1O [4-hydroxy-3,5-dimethoxybenzoic acid]
[1]
  Normal melting temperature: 212.7 ± 1.1 °C
[2]
  Molar enthalpy of transition or fusion: 7.98 ± 0.359 kcal/mol
